Experimental data from US7648964B2, “Use of lacritin in promoting ocular cell survival” (University of Virginia Patent Foundation, priority 2004, dated 2010).
Entries after “also recorded” stand apart in the source; their conditions may differ.

Assays:
[1] = test system: PKCα; assay: Phospho-PKCα blot of HSG cell lysates; type: cell-based, human; conditions: for effect on lacritin-dependent PKCα dephosphorylation: pertussis toxin 100 ng/ml, Go 6976, U73122, U73343 1 μM
Description: (§1) For phosphotyrosine blotting and mitogenesis assays, cells in serum-containing media were seeded overnight in 24-well plates at a density of 0.5×10^5 cells/mm^2 corresponding to 20-30% confluency after cell attachment, incubated in serum-free media without supplements for 24 h (phosphotyrosine) or washed with serum-free media without supplements three times (mitogenesis) and incubated with lacritin (1-1000 nM), or positive controls EGF (1.6 nM) and 10% fetal bovine serum, or negative controls bovine serum albumin or no additive in serum-free media without supplements for the indicated times (phosphotyrosine) or 30 h (mitogenesis). For phosphotyrosine assays, cells were extracted in 1% NP40 containing sodium vanadate (2 mg/ml), DTT (5 mg/ml), protease inhibitors, 50 mM HEPES, 100 mM NaCl, and 2 mM EDTA; then separated by 10% SDS PAGE, transferred and blotted. The following antibodies (Cell Signaling Technology, Beverly Mass.) were tested: antiphosphotyrosine antibody (P-Tyr-100), anti-phospho-PKC αβII, anti-PKCα, anti-phospho-PKCδ, anti-phospho-PKC (pan), anti-p44/42 MAPK, anti-phospho-Raf, anti-phospho-SAPK/JNK, anti-phospho-p38 Map kinase, anti-phospho-Raf, anti-phospho-Akt, anti-phospho-CaMKII, anti-phospho-MARCKS, or anti-tubulin (loading control). After washing, bound antibodies were detected with peroxidase-labeled secondary antibody and ECL. With the exception of at least nine proteins in the P-Tyr-100 blot (FIG. 1), none of the effectors tested above appeared to be phospho-activated during lacritin signaling (not shown). For mitogenesis (Hussaini et al., '00), [^3H]-thymidine (2 mCi/ml) was added for the next 6 h. Incorporation was stopped with ice-cold phosphate buffered saline and followed by addition of cold and then room temperature trichloracetic acid (10%) for 10 min each, washing of cells with phosphate buffered saline, solubilization with 1 N sodium hydroxide, neutralization with 1 N hydrochloric acid, addition of scintillation fluid and then quantitation in a scintillation counter. To deplete PKCα in HSG cells, a pool of four PKCα-specific siRNAs (100 nM) were transfected via LipofectAMINE 2000 in Opti-MEMI Reduced Serum Medium (Invitrogen, Grand Island N.Y.) without serum and antibiotics according to manufacturer's instructions. Each of the four siRNAs was also individually transfected. In negative controls, cells were transfected with a pool of four lamin-specific siRNAs (Upstate LLC, Charlottesville Va.; Dharmacon Inc, Lafayette Colo.). Seventy-two hours post-transfection, mitogenesis was assessed by co-addition of 10 […] lacritin and [^3H]-thymidine (2 mCi/ml) (Amersham, Piscataway N.J.) for 24 hrs. PKCα depletion was confirmed by Western blotting.
We imaged PKCα in cells 15 min after treatment (FIG. 8). Nonmitogenic construct/fragment C-25 (10 nM) had no effect, leaving PKCa diffusely distributed throughout the cytoplasm. […] The phosphorylation state of PKCα influences its translocation site. Hyperphosphorylated PKCα becomes associated with the plasma membrane whereas hypophosphorylated or dephosphorylated PKCα is known to translocate to the perinuclear Golgi region. To determine if the latter is true and if so over what time course, we treated cells with lacritin, N-24 and C-25, and then blotted cell lysates for phospho-PKC ? (FIG. 8B). 10 nM lacritin promotes PKC ? dephosphorylation within 1 min of addition. This form is sustained for at least 15 min, but by 30 min has returned to baseline phosphorylation. Dephosphorylation triggered by increasing molar levels of lacritin or N-24 mirrored the proliferation response with optimal dephosphorylation at 10 nM. Non-mitogenic C-25 had no effect, whereas positive control 4β-phorbol 12-myristate 13-acetate-promoted hyperphosphorylation.

[2] = test system: PKCα; assay: PKCα translocation in HSG cells (immunofluorescence, fractionation); type: cell-based, human; conditions: for effect on lacritin-dependent PKCα translocation: pertussis toxin 100 ng/ml, Go 6976, U73122, U73343, cyclosporine 1 μM, nifedipine 10 μM
Source text: In order to dissect the molecular pathways leading to the cell survival by lacritin, protein kinases and transcriptional factors were studied by Western blotting and immunofluorescence microscopy.
Images were acquired at 2-3 s intervals using LaserSharp2000 software (Bio-Rad) and store on disc for later analysis.

[3] = test system: NFATC1; assay: NFATC1 translocation in HSG cells (immunofluorescence); type: cell-based, human; conditions: cyclosporine 1 μM; nifedipine 10 μM
Source text: In order to dissect the molecular pathways leading to the cell survival by lacritin, protein kinases and transcriptional factors were studied by Western blotting and immunofluorescence microscopy. […] On the other hand, there were increased activities of transcriptional factors such as nuclear factor of activated T-cells (NFAT) and NF-kappaB. In FIG. 4, translocation of PKC alpha and NFAT was detected by immunofluorescence coupled with confocal microscopic imaging. In resting HSG cells (left three images), PKC alpha distributes mainly in cytosol and membrane. Similarly, NFATc1 was also found to localize largely in cytosol. Cellular co-location of PKC alpha and NFATc1 is apparent upon merging the two immunofluorescent images, as the merged cy3 and FITC labels produce distinctive yellow color.
Images were acquired at 2-3 s intervals using LaserSharp2000 software (Bio-Rad) and store on disc for later analysis. For translocation assays, HSG cells […] phorbol 12-myristate 13-acetate, […], then washed with phosphate-buffered saline, formaldehyde-fixed, blocked with phosphate-buffered saline containing 1% bovine serum albumin and 10% goat serum, incubated with anti-PKCα (C-20) or anti-NFATC1 (mab 7A6) (both from Santa Cruz Biotechnology Inc.; Santa Cruz, Calif.) followed by secondary Cy3-, FITC- or Alexa488-labeled antibodies and confocal microscopic visualization (Bio-Rad Radiance2100).

[4] = test system: HSG cells; assay: Calcium mobilization imaging in HSG cells (Fluo-4); type: cell-based, human; conditions: for effect on lacritin-stimulated calcium mobilization: preincubation: pertussis toxin 100 ng/ml, or siRNA
Description: Cells were seeded at 1.4×10^4 HSG cells/mm^2 or 0.7×10^4 HSG cells/mm^2 on Matrigel-coated (100 μg/ml; BD Biosciences; San Diego Calif.) coverslips to respectively achieve 70-80% confluency after overnight or 48 h growth in 6-well plates containing phenol red-free Dulbecco's modified Eagle's medium with 10% fetal calf serum.
Other cells were incubated (0.7×10^4HSG cells/mm^2 overnight plating) with 100 ng/ml pertussis toxin (Calbiochem; San Diego Calif.) in phenol red-free Dulbecco's modified Eagle's medium with 10% fetal calf serum; or vehicle alone). Cells were washed with calcium-free/phenol red-free Hanks basic salt solution, 20 mM N-2-hydroxyethylpiperazine-N′-2-ethane sulfonic acid and then incubated for 1 h at room temperature with the same solution containing fluo-4 μM at 4 μM (FluoroPure grade [Molecular Probes; Eugene Oreg.] dissolved in DMSO plus 20% Pluronic F-127). Cells were washed three times for 60 min at room temperature with calcium-free/phenol red-free Hanks basic salt solution with 5 mM Ca^2+ or 5 mM EGTA. Temperature was stabilized for 5 min at 37° C. coverslips were placed on the stage of a TE-200 epifluorescent microscope (Bio-Rad Radiance2100 confocal/multiphoton system using Plan Fluor 60×NA 1.4 Oil IR objective lens [Bio-Rad, Hercules Calif.] as part of the W. M. Keck Center for Cellular Imaging, University of Virginia), subjected to a 488 nm argon laser light source with emission at 528 nm. Baseline monitoring was followed by addition of lacritin or deletion fragments in phenol red-free Hanks basic salt solution.

[5] = test system: human salivary ductal (HSG) cells; assay: 3H-thymidine uptake mitogenesis assay; type: cell-based; conditions: 10 nM; compared to intact lacritin
Description: as §1

[6] = test system: caspase-8; assay: Caspase-8 activity in human corneal epithelial cells treated with TNF-α; type: cell-based
Description: FIG. 12 graphically illustrates the ability of lacritin polypeptides to block TNFα induced caspase-8 activity in human corneal epithelial cells. The ordinate represents relative fluorescence units. White bars indicate 1 hour and diagonally-hatched bars indicate 6 hours.
(§2) Lacritin-induced proliferation and calcium signaling was studied in the human corneal epithelial (HCE) cell line. HCE cells were grown at 37° C. in DMEM F/12 supplemented with 10% FBS and 50 μg/ml gentamicin. Each experiment was done in a dose- and time-dependent manner using TNF-α (5-20 ng/ml) and lacritin (1-10 nM). Cell viability was measured spectrophotometrically at an absorbance of 570 nm using the MTT assay. Caspase-8 activity was detected fluorometrically by measuring cleavage of the fluorogenic substrate IETD-pNA at an excitation wavelength of 405 nm. Lacritin-induced cell proliferation was studied by H3-thymidine incorporation and via fluorescence-based detection of PKC, PLC and cAMP. Calcium signaling was detected by confocal microscopy of Fluo-4 loaded cells.

[7] = test system: human corneal epithelial (HCE) cell line; assay: TNF-α-induced cell death in HCE cells (MTT cell viability); type: cell-based
Description: as §2

[8] = test system: caspase-9; assay: Caspase-9 activity in human corneal epithelial cells treated with TNF-α; type: cell-based
Description: FIG. 13 graphically illustrates the ability of lacritin polypeptides (10 nM) to block TNFα induced caspase-9 activity in human corneal epithelial cells. The ordinate represents relative fluorescence units. White bars indicate 6 hours and diagonally-hatched bars indicate 9 hours.
Caspase-9 activity was measured in cells treated with various combinations of TNF-α, fragments of lacritin, and the PKC inhibitor Go6976. […] The PKC-α inhibitor Go6976 and C-25 fail to block this increase of the downstream initiator caspase-9.

Molecule: CCCCCCCCCCCCCC(=O)O[C@@H]1[C@@H](C)[C@@]2(O)[C@@H](C=C(CO)C[C@]3(O)C(=O)C(C)=C[C@@H]23)[C@@H]2C(C)(C)[C@]12OC(C)=O [4β-phorbol 12-myristate 13-acetate, reference compound]
- effect on PKCα phosphorylation [1]: hyperphosphorylation
- PKCα translocation ([2]; 15 min after treatment): concentrated PKCα solely in the plasma membrane

Molecule: O=C(O)CN(CCOCCOCCN(CC(=O)O)CC(=O)O)CC(=O)O [EGTA]
- effect on lacritin-dependent NFATC1 translocation [3]: non-inhibitory

Molecule: COc1ccc2c(c1)CC[C@@H]1[C@@H]2CC[C@]2(C)[C@@H](NCCCCCCN3C(=O)C=CC3=O)CC[C@@H]12 [U73122]
- effect on lacritin-dependent PKCα dephosphorylation [1]: inhibited
- effect on lacritin-dependent PKCα translocation [2]: inhibited
- effect on lacritin-dependent NFATC1 translocation [3]: inhibited
- effect on carbachol-stimulated calcium mobilization ([4]; U73122 1 μM, Go 6976 1 μM, even at 10 μM): inhibited
- effect on lacritin-stimulated calcium mobilization ([4]; U73122 1 μM, Go 6976 1 μM): inhibited

Molecule: COc1ccc2c(c1)CC[C@@H]1[C@@H]2CC[C@]2(C)[C@@H](NCCCCCCN3C(=O)CCC3=O)CC[C@@H]12 [U73343]
- effect on lacritin-dependent PKCα dephosphorylation [1]: full translocation and dephosphorylation
- effect on lacritin-dependent PKCα translocation [2]: full translocation and dephosphorylation

Molecule: C[N+](C)(C)CCOC(N)=O [carbachol]
- calcium mobilization after pertussis toxin preincubation ([4]; positive control replacing lacritin): full calcium mobilization

Molecule: [Gd] [gadolinium]
- effect on lacritin-dependent NFATC1 translocation [3]: non-inhibitory

Molecule: C/C=C(/C)C(=O)O[C@H]1C(C)=C2[C@H]([C@@H]1OC(=O)CCCCCCC)[C@@](C)(OC(C)=O)C[C@H](OC(=O)CCC)[C@@]1(O)[C@H]2OC(=O)[C@@]1(C)O [thapsigargin]
- effect on lacritin-dependent PKCα translocation [2]: inhibited
- effect on lacritin-dependent NFATC1 translocation [3]: inhibited

Molecule: C-59: deletion of the 59 carboxy terminal amino acids of mature lacritin (SEQ ID NO:10) (EDASSDSTGADPAQEAGTSKPNEEISGPAEPASPPETTTTAQETSAAAVQGTAKVTSSRQ; homo sapiens)
- mitogenic activity of deletion constructs [5]: inactive

Molecule: TNF-α [reference compound]
- increase in caspase-8 activity ([6]; TNF-α alone): three-fold increase; also recorded: multifold increase
- TNF-α-induced cell death ([7]; after 18 hr): 32.2±2.6%
- TNF-α-induced cell death ([7]; after 30 hr): 73.7±10%
- increase in caspase-9 activity ([8]; TNF-α alone): multifold increase

Molecule: pertussis toxin
- effect on lacritin-dependent PKCα dephosphorylation [1]: inhibited
- effect on lacritin-dependent PKCα translocation [2]: inhibited
- effect on lacritin-dependent NFATC1 translocation [3]: inhibited
- effect on lacritin-stimulated calcium mobilization ([4]; U73122 1 μM, Go 6976 1 μM): completely inhibited

B1: C-15: deletion of the 15 carboxy terminal amino acids of mature lacritin (SEQ ID NO:10) (protein)
chain: EDASSDSTGADPAQEAGTSKPNEEISGPAEPASPPETTTTAQETSAAAVQGTAKVTSSRQELNPLKSIVEKSILLTEQALAKAGKGMHGGVPGGKQFIENGSEF
modifications: homo sapiens
- mitogenic activity of deletion constructs [5]: diminished; also recorded: partially active

B2: C-10: deletion of the 10 carboxy terminal amino acids of mature lacritin (SEQ ID NO:10) (protein)
chain: EDASSDSTGADPAQEAGTSKPNEEISGPAEPASPPETTTTAQETSAAAVQGTAKVTSSRQELNPLKSIVEKSILLTEQALAKAGKGMHGGVPGGKQFIENGSEFAQKLL
modifications: homo sapiens
- mitogenic activity of deletion constructs [5]: active
- effect on TNF-α-induced caspase-8 activity [6]: blocked
- effect on TNF-α-induced caspase-9 activity ([8]; lacritin polypeptides 10 nM): blocked

B3: C-20: deletion of the 20 carboxy terminal amino acids of mature lacritin (SEQ ID NO:10) (protein)
chain: EDASSDSTGADPAQEAGTSKPNEEISGPAEPASPPETTTTAQETSAAAVQGTAKVTSSRQELNPLKSIVEKSILLTEQALAKAGKGMHGGVPGGKQFIE
modifications: homo sapiens
- mitogenic activity of deletion constructs [5]: completely abrogated activity; also recorded: inactive
